Test results reported in ChEMBL document CHEMBL1145288, “5-substituted, 6-substituted, and unsubstituted 3-heteroaromatic pyridine analogues of nicotine as selective inhibitors of cytochrome P-450 2A6” (J Med Chem, 2005).

Tests used:
[1] = molecular target: Cytochrome P450 2C19 (Homo sapiens, UniProt P33261); assay: Inhibitory concentration value against human cytochrome P-450 2C19
[2] = molecular target: T1, Cytochrome P450 2B6 (Homo sapiens, UniProt P20813); assay: Inhibitory concentration value against human cytochrome P-450 2B6
T1 sequence (P20813 whole entry): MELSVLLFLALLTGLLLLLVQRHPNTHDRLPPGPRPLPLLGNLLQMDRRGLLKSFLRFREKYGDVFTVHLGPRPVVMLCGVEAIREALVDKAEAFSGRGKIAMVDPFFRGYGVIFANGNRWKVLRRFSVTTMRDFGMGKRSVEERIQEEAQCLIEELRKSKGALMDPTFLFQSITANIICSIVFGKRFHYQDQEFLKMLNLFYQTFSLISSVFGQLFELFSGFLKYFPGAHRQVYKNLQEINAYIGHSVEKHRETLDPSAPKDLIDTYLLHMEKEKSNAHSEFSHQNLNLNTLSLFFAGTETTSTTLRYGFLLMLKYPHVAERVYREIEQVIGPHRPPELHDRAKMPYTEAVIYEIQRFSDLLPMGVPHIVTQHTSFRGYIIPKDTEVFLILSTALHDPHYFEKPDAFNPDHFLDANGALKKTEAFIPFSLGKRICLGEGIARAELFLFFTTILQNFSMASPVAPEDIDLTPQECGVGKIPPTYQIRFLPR

[3] = molecular target: Cytochrome P450 2C9 (Homo sapiens, UniProt P11712); assay: Inhibitory concentration against human cytochrome P-450 2C9
Chain of Cytochrome P450 2C9 (P11712 whole entry): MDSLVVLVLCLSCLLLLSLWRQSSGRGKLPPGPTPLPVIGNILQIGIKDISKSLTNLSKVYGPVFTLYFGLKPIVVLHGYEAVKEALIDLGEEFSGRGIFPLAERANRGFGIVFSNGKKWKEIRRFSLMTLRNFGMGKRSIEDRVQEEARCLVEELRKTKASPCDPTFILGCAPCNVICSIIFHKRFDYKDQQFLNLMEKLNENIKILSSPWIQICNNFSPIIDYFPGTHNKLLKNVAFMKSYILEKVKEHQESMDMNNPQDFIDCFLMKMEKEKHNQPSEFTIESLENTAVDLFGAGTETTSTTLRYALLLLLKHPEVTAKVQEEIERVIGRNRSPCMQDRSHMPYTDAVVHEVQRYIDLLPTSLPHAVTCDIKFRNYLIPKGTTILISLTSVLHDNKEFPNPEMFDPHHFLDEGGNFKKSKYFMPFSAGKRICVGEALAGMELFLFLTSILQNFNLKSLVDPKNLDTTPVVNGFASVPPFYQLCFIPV

[4] = molecular target: Cytochrome P450 2D6 (Homo sapiens, UniProt P10635); assay: Inhibitory concentration value against human cytochrome P-450 2D6
Chain of Cytochrome P450 2D6 (P10635 whole entry): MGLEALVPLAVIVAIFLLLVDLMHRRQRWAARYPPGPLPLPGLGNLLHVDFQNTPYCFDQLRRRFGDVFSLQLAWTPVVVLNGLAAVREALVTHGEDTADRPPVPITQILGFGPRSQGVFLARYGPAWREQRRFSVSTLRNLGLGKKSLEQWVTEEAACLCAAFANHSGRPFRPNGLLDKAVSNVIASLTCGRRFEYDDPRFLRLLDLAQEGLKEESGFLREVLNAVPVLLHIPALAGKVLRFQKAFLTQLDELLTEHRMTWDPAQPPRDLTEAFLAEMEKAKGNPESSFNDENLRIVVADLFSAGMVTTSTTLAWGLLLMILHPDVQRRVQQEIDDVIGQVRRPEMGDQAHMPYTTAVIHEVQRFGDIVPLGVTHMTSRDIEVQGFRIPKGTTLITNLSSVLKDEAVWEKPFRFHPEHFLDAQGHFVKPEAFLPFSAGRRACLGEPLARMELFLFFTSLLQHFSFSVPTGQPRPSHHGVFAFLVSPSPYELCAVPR

[5] = molecular target: Cytochrome P450 2E1 (Homo sapiens, UniProt P05181); assay: Inhibitory concentration value against human cytochrome P-450 2E1
Chain of Cytochrome P450 2E1 (P05181 whole entry): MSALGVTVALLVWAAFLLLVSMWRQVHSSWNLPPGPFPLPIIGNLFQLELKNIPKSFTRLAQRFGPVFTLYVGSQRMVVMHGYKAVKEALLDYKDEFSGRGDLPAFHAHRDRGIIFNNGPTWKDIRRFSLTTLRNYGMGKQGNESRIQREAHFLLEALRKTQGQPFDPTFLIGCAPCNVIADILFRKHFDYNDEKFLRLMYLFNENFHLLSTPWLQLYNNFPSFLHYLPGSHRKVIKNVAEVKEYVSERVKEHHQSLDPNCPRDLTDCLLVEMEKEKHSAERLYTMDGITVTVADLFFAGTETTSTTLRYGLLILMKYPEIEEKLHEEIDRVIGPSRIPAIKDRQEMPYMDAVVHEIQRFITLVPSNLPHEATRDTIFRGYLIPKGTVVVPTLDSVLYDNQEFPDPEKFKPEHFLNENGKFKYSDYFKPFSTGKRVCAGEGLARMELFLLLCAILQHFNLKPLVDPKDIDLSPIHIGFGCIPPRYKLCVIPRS

[6] = molecular target: T2, Cytochrome P450 2A6 (Homo sapiens, UniProt P11509); assay: Effect on coumarin 7-hydroxylation by human Cytochrome P-450 2A6
T2 sequence (P11509 whole entry): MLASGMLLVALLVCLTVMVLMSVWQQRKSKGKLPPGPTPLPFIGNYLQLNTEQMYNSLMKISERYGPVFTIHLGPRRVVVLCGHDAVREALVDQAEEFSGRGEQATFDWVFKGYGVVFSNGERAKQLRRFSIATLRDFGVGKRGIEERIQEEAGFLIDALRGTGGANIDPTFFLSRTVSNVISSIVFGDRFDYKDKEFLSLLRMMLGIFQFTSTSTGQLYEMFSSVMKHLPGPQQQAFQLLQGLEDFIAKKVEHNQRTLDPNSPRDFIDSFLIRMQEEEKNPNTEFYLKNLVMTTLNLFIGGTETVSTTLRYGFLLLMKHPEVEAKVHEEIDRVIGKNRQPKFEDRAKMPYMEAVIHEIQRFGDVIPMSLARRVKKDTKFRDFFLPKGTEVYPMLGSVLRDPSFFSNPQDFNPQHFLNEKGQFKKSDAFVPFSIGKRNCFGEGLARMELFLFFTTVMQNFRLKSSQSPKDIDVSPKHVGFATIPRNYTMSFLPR

[7] = system: CYP2D6 versus CYP2A6; assay: Ratio of inhibition of human cytochrome P-450 2D6 to 2A6 was determined; Expressed as IC50(CYP2D6)/IC50(CYP2A6)
[8] = molecular target: T2, Cytochrome P450 2A6; assay: Inhibitory concentration value against human cytochrome P-450 2A6
[9] = molecular target: Cytochrome P450 3A4 (Homo sapiens, UniProt P08684); assay: Inhibitory concentration value against human cytochrome P-450 3A4
Chain of Cytochrome P450 3A4 (P08684 whole entry): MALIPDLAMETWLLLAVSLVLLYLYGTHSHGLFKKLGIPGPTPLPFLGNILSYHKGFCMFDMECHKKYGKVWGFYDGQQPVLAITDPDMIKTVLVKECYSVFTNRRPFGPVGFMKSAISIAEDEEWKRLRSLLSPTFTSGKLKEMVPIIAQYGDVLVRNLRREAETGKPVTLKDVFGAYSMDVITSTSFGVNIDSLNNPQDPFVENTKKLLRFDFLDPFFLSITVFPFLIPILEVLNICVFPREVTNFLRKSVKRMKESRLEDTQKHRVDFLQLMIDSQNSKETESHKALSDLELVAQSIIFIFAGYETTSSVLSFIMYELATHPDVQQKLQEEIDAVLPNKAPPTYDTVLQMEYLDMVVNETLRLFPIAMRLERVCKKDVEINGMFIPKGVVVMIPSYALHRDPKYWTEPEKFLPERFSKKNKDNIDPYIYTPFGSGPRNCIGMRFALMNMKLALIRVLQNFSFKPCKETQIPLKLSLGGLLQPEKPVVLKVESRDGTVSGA

[10] = system: CYP2B6 versus CYP2A6; assay: Ratio of inhibition of human cytochrome P-450 2B6 to 2A6 was determined; Expressed as IC50(CYP2B6)/IC50(CYP2A6)
[11] = system: CYP2C9 versus CYP2A6; assay: Ratio of inhibition of human cytochrome P-450 2C9 to 2A6 was determined; Expressed as IC50(CYP2C9)/IC50(CYP2A6)
[12] = system: CYP2E1 versus CYP2A6; assay: Ratio of inhibition of human cytochrome P-450 2E1 to 2A6 was determined; Expressed as IC50(CYP2E1)/IC50(CYP2A6)
[13] = system: CYP3A4 versus CYP2A6; assay: Ratio of inhibition of human cytochrome P-450 3A4 to 2A6 was determined; Expressed as IC50(CYP3A4)/IC50(CYP2A6)
[14] = system: CYP2C19 versus CYP2A6; assay: Ratio of inhibition of human cytochrome P-450 2C19 to 2A6 was determined; Expressed as IC50(CYP2C19)/IC50(CYP2A6)

Chain of Cytochrome P450 2C19 (P33261 whole entry): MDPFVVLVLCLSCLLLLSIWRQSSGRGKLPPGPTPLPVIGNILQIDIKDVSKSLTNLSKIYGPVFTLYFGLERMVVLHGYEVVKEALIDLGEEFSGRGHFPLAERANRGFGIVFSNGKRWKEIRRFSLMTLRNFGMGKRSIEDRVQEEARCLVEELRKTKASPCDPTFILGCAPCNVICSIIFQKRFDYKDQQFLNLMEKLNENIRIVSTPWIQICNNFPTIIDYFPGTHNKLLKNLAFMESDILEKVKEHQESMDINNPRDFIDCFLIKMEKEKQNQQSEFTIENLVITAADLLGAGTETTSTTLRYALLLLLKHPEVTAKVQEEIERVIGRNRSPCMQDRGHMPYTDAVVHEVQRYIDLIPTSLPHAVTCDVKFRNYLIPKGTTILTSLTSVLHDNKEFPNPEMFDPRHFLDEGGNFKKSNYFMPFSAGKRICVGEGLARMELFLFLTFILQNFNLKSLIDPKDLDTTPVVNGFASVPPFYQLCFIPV

| Structure (SMILES) | IC50 [1] [µM] | IC50 [2] [µM] | IC50 [3] [µM] | Ki [6] [µM] | IC50 [4] [µM] | IC50 [5] [µM] | also measured |
| --- | --- | --- | --- | --- | --- | --- | --- |
| Cc1cncc(-c2cscc2C)c1 |  |  |  | 0.17 |  |  |  |
| Cn1cnc(-c2cccnc2)c1 | 122 | 146 | 79.5 | 0.13 | 217 | 4.1 | selectivity ratio [7]: 289 |
| Cc1cscc1-c1ccc(F)nc1 |  |  | > 400 |  |  |  |  |
| CN1CCC[C@H]1c1cccnc1 [NICOTINE] |  |  |  | 4.4 |  |  |  |
| c1cncc(-c2ccsc2)c1 | 111 | 59.1 | 96.3 | 0.22 | 248 | > 400 | IC50 [8]: 1.4 µM; IC50 [9]: 56.9 µM; selectivity ratio [10]: 42; selectivity ratio [11]: 69; selectivity ratio [7]: 177; selectivity ratio [12]: > 286; selectivity ratio [13]: 400; selectivity ratio [14]: 81 |
| c1cncc(-n2cnnn2)c1 |  |  |  | ≥ 67 |  |  |  |
| c1cncc(-c2cccnc2)c1 | > 300 |  | > 300 |  | > 300 | > 300 |  |
| O/N=C/c1ccc(-c2cccnc2)o1 | 118 | 372 | 86.2 | 0.71 | > 400 | > 400 | IC50 [9]: > 400 µM; selectivity ratio [11]: 1; selectivity ratio [14]: 1.4 |
| CC(=O)c1ccc(-c2cccnc2)s1 | 62.7 | 217 | 98.2 | 1.4 | 387 | > 400 | selectivity ratio [10]: 25; selectivity ratio [11]: 11; selectivity ratio [7]: 45; selectivity ratio [12]: > 46; selectivity ratio [13]: 3.1; selectivity ratio [14]: 7 |
| N=Cc1ccc(-c2cccnc2)s1.N=Cc1ccc(-c2cccnc2)s1.NCc1ccc(-c2cccnc2)s1 |  | 256 |  |  | 197 | 77.5 | IC50 [8]: 3.7 µM; IC50 [9]: 77.5 µM |
| NCc1ccc(-c2cccnc2)o1 |  |  |  |  |  |  | selectivity ratio [7]: 4.1 |
| COc1ccc(-c2sccc2C)cn1 |  |  |  | ≥ 67 |  |  |  |
| O/N=C/c1ccc(-c2cccnc2)o1.O/N=C\c1ccc(-c2cccnc2)o1 |  |  |  |  | > 400 |  |  |
| c1cncc(-c2ccc(CNCc3ccc(-c4cccnc4)s3)s2)c1 |  |  |  |  |  |  | IC50 [9]: > 400 µM |
| COc1ccc(-c2cscc2C)cn1 |  |  |  | 6.6 |  |  |  |
| c1ccc(-c2cccnc2)nc1 [[2,3'']Bipyridinyl] |  |  |  | 7.7 |  |  |  |
| CNCC#Cc1cccnc1 |  |  |  | 0.89 |  |  |  |
| O/N=C\c1ccc(-c2cccnc2)o1 | 279 | 128 | 398 | 13.7 | > 400 | > 400 | IC50 [8]: 4.2 µM; IC50 [9]: > 400 µM; selectivity ratio [11]: 94; selectivity ratio [7]: > 95; selectivity ratio [13]: > 95; selectivity ratio [14]: 66 |
| c1cncc(-c2nccs2)c1 |  |  |  | 3.2 |  |  |  |

Further lines, with some results ahead:

| IC50 [1] [µM] | IC50 [2] [µM] | IC50 [3] [µM] | Ki [6] [µM] | Structure (SMILES) | IC50 [4] [µM] | IC50 [5] [µM] | also measured |
| --- | --- | --- | --- | --- | --- | --- | --- |
| 178 | 70.8 | 99.2 |  | c1cncc(-c2cccs2)c1 | > 400 | 4.1 |  |
|  |  |  | 2.7 | Cc1ccc(-c2cccnc2)nc1 |  |  |  |
|  |  |  | 1.5 | Cc1ccsc1-c1cncc(Br)c1 |  |  |  |
|  |  |  | 27.4 | c1cncc(-c2cncnc2)c1 |  |  |  |
|  |  |  | 1.4 | NCc1ccc(-c2cccnc2)cc1 |  |  |  |
|  |  |  | 0.21 | Cc1ccsc1-c1ccc(F)nc1 |  |  |  |
|  |  |  | ≥ 67 | O=Cc1ccc(-c2cccnc2)o1 |  |  |  |
| 46.4 | 83.1 | 75.2 | 0.52 | CCn1cnc(-c2cccnc2)c1 | 344 | 80 | IC50 [9]: 79.2 µM; selectivity ratio [10]: 26; selectivity ratio [11]: 24; selectivity ratio [7]: 111; selectivity ratio [12]: 26; selectivity ratio [13]: 26; selectivity ratio [14]: 15 |
| 182 | 72.1 | > 400 | 0.97 | Fc1ccc(-c2ccsc2)cn1 | 199 | 7.2 | IC50 [8]: 5.8 µM; IC50 [9]: 114 µM; selectivity ratio [10]: 12; selectivity ratio [11]: > 69; selectivity ratio [7]: 34; selectivity ratio [12]: 1.2; selectivity ratio [13]: 20; selectivity ratio [14]: 31 |
| 122 | 146 | 79.5 | 0.13 | C[n+]1c[nH]cc1-c1cccnc1 | 217 | 4.1 | IC50 [8]: 0.75 µM; IC50 [9]: 262 µM; selectivity ratio [10]: 195; selectivity ratio [11]: 106; selectivity ratio [7]: 289; selectivity ratio [12]: 5; selectivity ratio [13]: 349; selectivity ratio [14]: 163 |
|  |  |  | 5.1 | Cc1ccnc(-c2cccnc2)c1 |  |  |  |
| > 300 | > 300 | > 300 | 0.17 | Cc1cn(-c2cccnc2)cn1 | 297 | 57.9 | IC50 [8]: 1 µM |
| 37.2 | 214 | 223 | 0.24 | O/N=C/c1ccc(-c2cccnc2)s1 | 191 | 4.2 | IC50 [8]: 1.4 µM; selectivity ratio [10]: 153; selectivity ratio [11]: 159; selectivity ratio [7]: 136; selectivity ratio [12]: 3; selectivity ratio [13]: 9.3; selectivity ratio [14]: 27 |
|  |  |  | 6.2 | Cc1nc(-c2cccnc2)c[nH]1 |  |  |  |
|  |  |  | 43.7 | Cc1cccnc1-c1cccnc1 |  |  |  |
| 3.2 | 6.8 | 2.1 | 0.59 | CNc1ccc(-c2cccnc2)s1 | 14.4 | 31.1 | IC50 [8]: 3.5 µM; IC50 [9]: 6.3 µM; selectivity ratio [10]: 1.9; selectivity ratio [11]: 0.6; selectivity ratio [7]: 4.1; selectivity ratio [12]: 8.9; selectivity ratio [13]: 2; selectivity ratio [14]: 0.9 |
|  |  |  | 19.7 | O=[N+]([O-])c1ccc(-c2cccnc2)s1 |  |  |  |
|  |  |  | 6.3 | Clc1ccc(-c2cccnc2)cn1 |  |  |  |
|  |  |  | 4.5 | Brc1cncc(-c2ccsc2)c1 |  |  |  |
|  |  |  | 9.8 | Cc1cccc(-c2cccnc2)n1 |  |  |  |
